Target: T1, Androgen receptor (AR) (Homo sapiens, UniProt P10275, T878A)
T1 construct: 5.5×10^5 LNCap cells were injected into each well of a 6-well plate; endogenous in cells; host or cells: LNCaP
T1 sequence (P10275 1-920 T878A): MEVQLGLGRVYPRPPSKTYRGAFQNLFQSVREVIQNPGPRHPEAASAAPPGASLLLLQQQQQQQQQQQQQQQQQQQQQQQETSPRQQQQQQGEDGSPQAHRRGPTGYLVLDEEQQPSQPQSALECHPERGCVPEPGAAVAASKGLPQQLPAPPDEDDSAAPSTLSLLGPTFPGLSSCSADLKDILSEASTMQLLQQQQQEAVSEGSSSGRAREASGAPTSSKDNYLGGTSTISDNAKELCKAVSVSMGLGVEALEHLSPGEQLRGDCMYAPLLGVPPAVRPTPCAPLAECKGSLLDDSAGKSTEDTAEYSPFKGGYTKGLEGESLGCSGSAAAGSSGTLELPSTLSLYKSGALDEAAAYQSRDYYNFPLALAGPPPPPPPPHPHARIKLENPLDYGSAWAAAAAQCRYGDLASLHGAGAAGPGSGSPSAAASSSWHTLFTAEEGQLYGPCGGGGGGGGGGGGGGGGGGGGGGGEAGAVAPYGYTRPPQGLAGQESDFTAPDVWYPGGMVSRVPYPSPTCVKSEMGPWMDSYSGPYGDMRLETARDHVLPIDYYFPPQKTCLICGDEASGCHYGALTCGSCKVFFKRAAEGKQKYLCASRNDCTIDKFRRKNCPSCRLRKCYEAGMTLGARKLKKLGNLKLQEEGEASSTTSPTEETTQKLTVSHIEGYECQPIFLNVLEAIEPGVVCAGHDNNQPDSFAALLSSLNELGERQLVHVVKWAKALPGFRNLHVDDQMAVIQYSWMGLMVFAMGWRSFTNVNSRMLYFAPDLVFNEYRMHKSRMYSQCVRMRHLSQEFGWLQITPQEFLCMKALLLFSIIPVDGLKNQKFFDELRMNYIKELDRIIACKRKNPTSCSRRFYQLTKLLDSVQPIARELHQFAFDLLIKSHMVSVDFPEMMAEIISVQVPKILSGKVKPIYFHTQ
Assay: Assessment of AR proteolytic activity (Western blotting of LNCap cell lysates)
Type: cell-based
Settings: 24 hours of treatment, Western blotting quantified with Image J
Experimental: Assessment of AR Proteolytic Activity
Androgen receptor (AR) proteolytic activity of the compound according to the present invention was evaluated as follows: Specifically, 5.5×10^5 LNCap cells were injected into each well of a 6-well plate. […] After 24 hours of treatment, cells were collected and lysed using RIPA Lysis buffer (50 mM Tris-HCl, pH7.5, 150 mM NaCl, 1% Triton X-100, 2 mM EDTA, 0.1% SDS, 0.5% sodium deoxycholate and protease inhibitor cocktail) to make cell lysates. Western blotting was performed, and the results were quantified using Image J program.

For `CC1(C)C(NC(=O)c2ccc(N3CCC4(CC3)CN(CC3CN(c5ccc6c(=O)n(C7CCC(=O)NC7=O)nnc6c5)C3)C4)nc2)C(C)(C)C1Oc1ccc(C#N)c(Cl)c1` (centres unmarked) [Example 175, N-((1r,3r)-3-(3-chloro-4-cyanophenoxy)-2,2,4,4-tetramethylcyclobutyl)-6-(2-((1-(3-(2,6-dioxopiperidin-3-yl)-4-oxo-3,4-dihydrobenzo[d][1,2,3]triazin-7-yl)azetidin-3-yl)methyl)-2,7-diazaspiro[3.5]nonan-7-yl)nicotinamide], the “Degradation (1 μM treated in LNCaP, % AR remaining)” value was 10%.

`CC1(C)C(NC(=O)c2ccc(N3CCC4(CC3)CN(CC3CN(c5ccc6nnn(C7CCC(=O)NC7=O)c(=O)c6c5)C3)C4)nc2)C(C)(C)C1Oc1ccc(C#N)c(Cl)c1` (centres unmarked) [Example 176, N-((1r,3r)-3-(3-chloro-4-cyanophenoxy)-2,2,4,4-tetramethylcyclobutyl)-6-(2-((1-(3-(2,6-dioxopiperidin-3-yl)-4-oxo-3,4-dihydrobenzo[d][1,2,3]triazin-6-yl)azetidin-3-yl)methyl)-2,7-diazaspiro[3.5]nonan-7-yl)nicotinamide] was tested, and the “Degradation (1 μM treated in LNCaP, % AR remaining)” value was 6%.

`CC1(C)C(NC(=O)c2ccc(C#CCN3CCN(c4ccc5c(=O)n(C6CCC(=O)NC6=O)nnc5c4)CC3)nc2)C(C)(C)C1Oc1ccc(C#N)c(Cl)c1` (centres unmarked) [Example 177, N-((1r,3r)-3-(3-chloro-4-cyanophenoxy)-2,2,4,4-tetramethylcyclobutyl)-6-(3-(4-(3-(2,6-dioxopiperidin-3-yl)-4-oxo-3,4-dihydrobenzo[d][1,2,3]triazin-7-yl)piperazin-1-yl)prop-1-yn-1-yl)nicotinamide] was tested, and the “Degradation (1 μM treated in LNCaP, % AR remaining)” value was 56%.

`CC1(C)C(NC(=O)c2ccc(C#CCN3CCN(c4ccc5nnn(C6CCC(=O)NC6=O)c(=O)c5c4)CC3)nc2)C(C)(C)C1Oc1ccc(C#N)c(Cl)c1` (centres unmarked) [Example 178, N-((1r,3r)-3-(3-chloro-4-cyanophenoxy)-2,2,4,4-tetramethylcyclobutyl)-6-(3-(4-(3-(2,6-dioxopiperidin-3-yl)-4-oxo-3,4-dihydrobenzo[d][1,2,3]triazin-6-yl)piperazin-1-yl)prop-1-yn-1-yl)nicotinamide] was tested, and the “Degradation (1 μM treated in LNCaP, % AR remaining)” value was 23%.

With `CC1(C)C(NC(=O)c2ccc(C#CCN3CC4(CCN(c5ccc6c(=O)n(C7CCC(=O)NC7=O)nnc6c5)CC4)C3)nc2)C(C)(C)C1Oc1ccc(C#N)c(Cl)c1` (centres unmarked) [Example 179, N-((1r,3r)-3-(3-chloro-4-cyanophenoxy)-2,2,4,4-tetramethylcyclobutyl)-6-(3-(7-(3-(2,6-dioxopiperidin-3-yl)-4-oxo-3,4-dihydrobenzo[d][1,2,3]triazin-7-yl)-2,7-diazaspiro[3.5]nonan-2-yl)prop-1-yn-1-yl)nicotinamide] the “Degradation (1 μM treated in LNCaP, % AR remaining)” value was 8%.

`CC1(C)C(NC(=O)c2ccc(C#CCN3CC4(CCN(c5ccc6nnn(C7CCC(=O)NC7=O)c(=O)c6c5)CC4)C3)nc2)C(C)(C)C1Oc1ccc(C#N)c(Cl)c1` (centres unmarked) [Example 180, N-((1r,3r)-3-(3-chloro-4-cyanophenoxy)-2,2,4,4-tetramethylcyclobutyl)-6-(3-(7-(3-(2,6-dioxopiperidin-3-yl)-4-oxo-3,4-dihydrobenzo[d][1,2,3]triazin-6-yl)-2,7-diazaspiro[3.5]nonan-2-yl)prop-1-yn-1-yl)nicotinamide] was tested, and the “Degradation (1 μM treated in LNCaP, % AR remaining)” value was 18%.

In the case of `CC1(C)C(NC(=O)c2ccc(C#CCN3CCC4(CC3)CN(c3ccc5c(=O)n(C6CCC(=O)NC6=O)nnc5c3)C4)nc2)C(C)(C)C1Oc1ccc(C#N)c(Cl)c1` (centres unmarked) [Example 181, N-((1r,3r)-3-(3-chloro-4-cyanophenoxy)-2,2,4,4-tetramethylcyclobutyl)-6-(3-(2-(3-(2,6-dioxopiperidin-3-yl)-4-oxo-3,4-dihydrobenzo[d][1,2,3]triazin-7-yl)-2,7-diazaspiro[3.5]nonan-7-yl)prop-1-yn-1-yl)nicotinamide], the “Degradation (1 μM treated in LNCaP, % AR remaining)” value is reported as 18%.

For `CC1(C)C(NC(=O)c2ccc(C#CCN3CCC4(CC3)CN(c3ccc5nnn(C6CCC(=O)NC6=O)c(=O)c5c3)C4)nc2)C(C)(C)C1Oc1ccc(C#N)c(Cl)c1` (centres unmarked) [Example 182, N-((1r,3r)-3-(3-chloro-4-cyanophenoxy)-2,2,4,4-tetramethylcyclobutyl)-6-(3-(2-(3-(2,6-dioxopiperidin-3-yl)-4-oxo-3,4-dihydrobenzo[d][1,2,3]triazin-6-yl)-2,7-diazaspiro[3.5]nonan-7-yl)prop-1-yn-1-yl)nicotinamide], the “Degradation (1 μM treated in LNCaP, % AR remaining)” value was 16%.

`CC1(C)C(NC(=O)c2ccc(C#CC3CCN(CC4CN(c5ccc6c(=O)n(C7CCC(=O)NC7=O)nnc6c5)C4)CC3)nc2)C(C)(C)C1Oc1ccc(C#N)c(Cl)c1` (centres unmarked) [Example 183, N-((1r,3r)-3-(3-chloro-4-cyanophenoxy)-2,2,4,4-tetramethylcyclobutyl)-6-((1-((1-(3-(2,6-dioxopiperidin-3-yl)-4-oxo-3,4-dihydrobenzo[d][1,2,3]triazin-7-yl)azetidin-3-yl)methyl)piperidin-4-yl)ethynyl)nicotinamide] was tested, and the “Degradation (1 μM treated in LNCaP, % AR remaining)” value was 7.5%.

`CC1(C)C(NC(=O)c2ccc(C#CC3CCN(CC4CN(c5ccc6nnn(C7CCC(=O)NC7=O)c(=O)c6c5)C4)CC3)nc2)C(C)(C)C1Oc1ccc(C#N)c(Cl)c1` (centres unmarked) [Example 184, N-((1r,3r)-3-(3-chloro-4-cyanophenoxy)-2,2,4,4-tetramethylcyclobutyl)-6-((1-((1-(3-(2,6-dioxopiperidin-3-yl)-4-oxo-3,4-dihydrobenzo[d][1,2,3]triazin-6-yl)azetidin-3-yl)methyl)piperidin-4-yl)ethynyl)nicotinamide] was tested, and the “Degradation (1 μM treated in LNCaP, % AR remaining)” value was 11%.

For `CC1(C)[C@H](NC(=O)c2ccc(N3CC[C@H](CN4CC5(CCN(c6ccc7c(=O)n(C8CCC(=O)NC8=O)nnc7c6)CC5)C4)C3)nc2)C(C)(C)[C@H]1Oc1ccc(C#N)c(Cl)c1` (stereo partly drawn) [Example 185, N-((1r,3R)-3-(3-chloro-4-cyanophenoxy)-2,2,4,4-tetramethylcyclobutyl)-6-((3R)-3-((7-(3-(2,6-dioxopiperidin-3-yl)-4-oxo-3,4-dihydrobenzo[d][1,2,3]triazin-7-yl)-2,7-diazaspiro[3.5]nonan-2-yl)methyl)pyrrolidin-1-yl)nicotinamide], the “Degradation (1 μM treated in LNCaP, % AR remaining)” value was 10%.

`CC1(C)C(NC(=O)c2ccc(N3CC[C@H](CN4CC5(CCN(c6ccc7nnn(C8CCC(=O)NC8=O)c(=O)c7c6)CC5)C4)C3)nc2)C(C)(C)C1Oc1ccc(C#N)c(Cl)c1` (stereo partly drawn) [Example 186, N-((1r,3R)-3-(3-chloro-4-cyanophenoxy)-2,2,4,4-tetramethylcyclobutyl)-6-((3R)-3-((7-(3-(2,6-dioxopiperidin-3-yl)-4-oxo-3,4-dihydrobenzo[d][1,2,3]triazin-6-yl)-2,7-diazaspiro[3.5]nonan-2-yl)methyl)pyrrolidin-1-yl)nicotinamide] was tested, and the “Degradation (1 μM treated in LNCaP, % AR remaining)” value was 11%.

With `CC1(C)C(NC(=O)c2ccc(N3CC[C@@H](CN4CC5(CCN(c6ccc7c(=O)n(C8CCC(=O)NC8=O)nnc7c6)CC5)C4)C3)nc2)C(C)(C)C1Oc1ccc(C#N)c(Cl)c1` (stereo partly drawn) [Example 187, N-((1r,3S)-3-(3-chloro-4-cyanophenoxy)-2,2,4,4-tetramethylcyclobutyl)-6-((3S)-3-((7-(3-(2,6-dioxopiperidin-3-yl)-4-oxo-3,4-dihydrobenzo[d][1,2,3]triazin-7-yl)-2,7-diazaspiro[3.5]nonan-2-yl)methyl)pyrrolidin-1-yl)nicotinamide] the “Degradation (1 μM treated in LNCaP, % AR remaining)” value was 27%.

With `CC1(C)C(NC(=O)c2ccc(N3CC[C@@H](CN4CC5(CCN(c6ccc7nnn(C8CCC(=O)NC8=O)c(=O)c7c6)CC5)C4)C3)nc2)C(C)(C)C1Oc1ccc(C#N)c(Cl)c1` (stereo partly drawn) [Example 188, N-((1r,3S)-3-(3-chloro-4-cyanophenoxy)-2,2,4,4-tetramethylcyclobutyl)-6-((3S)-3-((7-(3-(2,6-dioxopiperidin-3-yl)-4-oxo-3,4-dihydrobenzo[d][1,2,3]triazin-6-yl)-2,7-diazaspiro[3.5]nonan-2-yl)methyl)pyrrolidin-1-yl)nicotinamide] the “Degradation (1 μM treated in LNCaP, % AR remaining)” value was 21%.

— patent publication US20240018123A1, “COMPOUND FOR INHIBITING OR DISINTEGRATING ANDROGEN RECEPTOR, AND PHARMACEUTICAL USE THEREOF” (KOREA RESEARCH INSTITUTE OF CHEMICAL TECHNOLOGY, priority 2020, published 2024)
